Test results taken from US20070128217A1 (priority 2003, published 2007).

Tests used:
[1] = system: antibodies in sera from SARS patients (sera 1a, 1b, 2, 6, 37, 62, London, SARS-yellow, SARS-green); assay type: binding, human; parameters: Binding of serum 6 to linear peptides of protein X1 of SARS-CoV Urbani / Binding of serum 37 to linear peptides of protein X1 of SARS-CoV Urbani / Binding of serum 6 to looped/cyclic peptide (PEPSCAN-ELISA) / Binding of serum 37 to looped/cyclic peptide (PEPSCAN-ELISA) / Binding of serum 37 to looped/cyclic peptides of protein X1 of SARS-CoV Urbani / Binding of serum 6 to linear peptides of protein X2 / Binding of serum 37 to linear peptides of protein X2 / Binding of serum 37 to looped/cyclic peptides of protein X2 of SARS-CoV Urbani / Binding of serum 6 to linear peptides of protein M of SARS-CoV Urbani / Binding of serum 37 to linear peptides of protein M of SARS-CoV Urbani / Binding of serum 6 to looped/cyclic peptides of protein M of SARS-CoV Urbani / Binding of serum 37 to looped/cyclic peptides of protein M of SARS-CoV Urbani / Binding of serum 6 to linear peptides of protein X3 of SARS-CoV Urbani / Binding of serum 37 to linear peptides of protein X3 of SARS-CoV Urbani / Binding of serum 37 to looped/cyclic peptides of protein X3 of SARS-CoV Urbani / Binding of serum 6 to linear peptides of protein X4 of SARS-CoV Urbani / Binding of serum 37 to linear peptides of protein X4 of SARS-CoV Urbani / Binding of serum 37 to looped/cyclic peptides of protein X4 of SARS-CoV Urbani / Binding of serum 6 to linear peptides of protein X5 of SARS-CoV Urbani / Binding of serum 37 to linear peptides of protein X5 of SARS-CoV Urbani / Binding of serum 37 to looped/cyclic peptides of protein X5 of SARS-CoV Urbani / Binding of serum 6 to linear peptides of protein N of SARS-CoV Urbani / Binding of serum 37 to linear peptides of protein N of SARS-CoV Urbani / Binding of serum 6 to linear peptide (PEPSCAN-ELISA) / Binding of serum 1a to looped/cyclic peptides of protein N of SARS-CoV Urbani / Binding of serum 1b to looped/cyclic peptides of protein N of SARS-CoV Urbani / Binding of serum 2 to looped/cyclic peptides of protein N of SARS-CoV Urbani / Binding of serum 6 to looped/cyclic peptides of protein N of SARS-CoV Urbani / Binding of serum 37 to looped/cyclic peptides of protein N of SARS-CoV Urbani / Binding of serum 62 to looped/cyclic peptides of protein N of SARS-CoV Urbani / Binding of serum London to looped/cyclic peptides of protein N of SARS-CoV Urbani / Binding of serum SARS-green to looped/cyclic peptides of protein N of SARS-CoV Urbani: unit not given here
[2] = system: control sera (pooled serum of ten healthy LUMC hospital workers; commercial negative donor pooled serum from the Dutch bloodbank); assay type: binding, human; parameters: Binding of Control serum LUMC to linear peptides / Binding of Control serum Blood-bank to linear peptides / Binding of Control serum LUMC to looped peptides / Binding of Control Serum Blood-Bank to Looped peptides / Binding of Control serum LUMC to linear peptides of the protein M of SARS-CoV Urbani / Binding of Control serum Blood-bank to linear peptides of the protein M of SARS-CoV Urbani / Binding of Control serum LUMC to looped peptides of the protein M of SARS-CoV Urbani / Binding of Control Serum Blood-Bank to Looped peptides of the protein M of SARS-CoV Urbani: unit not given here
[3] = system: rabbit serum obtained by immunizing a rabbit with the SARS-CoV strain Frankfurt 1; assay type: binding; parameters: Binding of a rabbit serum to linear peptides / Binding of a rabbit serum to looped peptides / Rabbit serum linear peptides / Rabbit serum looped peptides / Binding of a rabbit serum to linear peptides of protein N of SARS-CoV Urbani (Rabbit serum linear peptides) / Binding of a rabbit serum to looped/cyclic peptides of protein N of SARS-CoV Urbani (Rabbit serum looped peptides): unit not given here

MLLQFAYSNRNRFLY
0.2: Binding of serum 1b to looped/cyclic peptides of protein M of SARS-CoV Urbani [1] | Binding of serum 6 to linear peptides of protein M of SARS-CoV Urbani [1] | Binding of serum London to linear peptides of protein M of SARS-CoV Urbani [1] | Binding of serum SARS-green to linear peptides of protein M of SARS-CoV Urbani [1] | Binding of serum SARS-green to looped/cyclic peptides of protein M of SARS-CoV Urbani [1]
1.3: Binding of serum 6 to looped/cyclic peptides of protein M of SARS-CoV Urbani [1]
0.8: Binding of serum 1a to looped/cyclic peptides of protein M of SARS-CoV Urbani [1] | Binding of serum 37 to linear peptides of protein M of SARS-CoV Urbani [1]
0.1: Binding of serum SARS-yellow to linear peptides of protein M of SARS-CoV Urbani [1]
0.6: Binding of serum 1a to linear peptides of protein M of SARS-CoV Urbani [1] | Binding of serum 2 to looped/cyclic peptides of protein M of SARS-CoV Urbani [1] | Binding of serum 37 to looped/cyclic peptides of protein M of SARS-CoV Urbani [1] | Binding of Control serum Blood-bank to linear peptides of the protein M of SARS-CoV Urbani [2]
0.0: Rabbit serum looped peptides [3]
0.4: Binding of serum 1b to linear peptides of protein M of SARS-CoV Urbani [1] | Binding of Control Serum Blood-Bank to Looped peptides of the protein M of SARS-CoV Urbani [2]
0.7: Binding of serum 62 to linear peptides of protein M of SARS-CoV Urbani [1]
0.5: Binding of serum 2 to linear peptides of protein M of SARS-CoV Urbani [1] | Binding of serum 62 to looped/cyclic peptides of protein M of SARS-CoV Urbani [1] | Binding of Control serum LUMC to looped peptides of the protein M of SARS-CoV Urbani [2] | Rabbit serum linear peptides [3]
0.3: Binding of serum London to looped/cyclic peptides of protein M of SARS-CoV Urbani [1] | Binding of serum SARS-yellow to looped/cyclic peptides of protein M of SARS-CoV Urbani [1] | Binding of Control serum LUMC to linear peptides of the protein M of SARS-CoV Urbani [2]

KEITVATSRTLSYYK
0.6: Binding of serum 1a to looped/cyclic peptides of protein M of SARS-CoV Urbani [1] | Binding of serum 1b to linear peptides of protein M of SARS-CoV Urbani [1] | Binding of serum 2 to linear peptides of protein M of SARS-CoV Urbani [1] | Binding of serum 37 to looped/cyclic peptides of protein M of SARS-CoV Urbani [1] | Binding of serum 62 to linear peptides of protein M of SARS-CoV Urbani [1] | Binding of Control serum LUMC to linear peptides of the protein M of SARS-CoV Urbani [2]
0.2: Binding of serum SARS-green to looped/cyclic peptides of protein M of SARS-CoV Urbani [1] | Binding of serum SARS-yellow to linear peptides of protein M of SARS-CoV Urbani [1]
1.3: Binding of serum 6 to looped/cyclic peptides of protein M of SARS-CoV Urbani [1]
0.7: Binding of serum 1a to linear peptides of protein M of SARS-CoV Urbani [1] | Binding of Control Serum Blood-Bank to Looped peptides of the protein M of SARS-CoV Urbani [2] | Binding of Control serum LUMC to looped peptides of the protein M of SARS-CoV Urbani [2]
0.3: Binding of serum London to linear peptides of protein M of SARS-CoV Urbani [1]
0.8: Binding of serum 2 to looped/cyclic peptides of protein M of SARS-CoV Urbani [1] | Binding of Control serum Blood-bank to linear peptides of the protein M of SARS-CoV Urbani [2]
0.5: Binding of serum 1b to looped/cyclic peptides of protein M of SARS-CoV Urbani [1] | Binding of serum 37 to linear peptides of protein M of SARS-CoV Urbani [1] | Binding of serum 62 to looped/cyclic peptides of protein M of SARS-CoV Urbani [1] | Binding of serum SARS-yellow to looped/cyclic peptides of protein M of SARS-CoV Urbani [1] | Rabbit serum looped peptides [3]
0.4: Binding of serum London to looped/cyclic peptides of protein M of SARS-CoV Urbani [1] | Binding of serum SARS-green to linear peptides of protein M of SARS-CoV Urbani [1] | Rabbit serum linear peptides [3]
0.0: Binding of serum 6 to linear peptides of protein M of SARS-CoV Urbani [1]

LQTLVLKMLHSSSLT
0.4: Binding of serum 1a to looped/cyclic peptides of protein X2 of SARS-CoV Urbani [1] | Binding of serum 1b to looped/cyclic peptides of protein X2 of SARS-CoV Urbani [1] | Binding of serum 6 to linear peptides of protein X2 [1] | Binding of serum 62 to looped/cyclic peptides of protein X2 of SARS-CoV Urbani [1] | Binding of serum London to linear peptides of protein X2 [1]
0.6: Binding of serum 37 to linear peptides of protein X2 [1] | Binding of serum 62 to linear peptides of protein X2 [1]
0.7: Binding of serum 1a to linear peptides of protein X2 [1] | Binding of serum SARS-yellow to linear peptides of protein X2 [1] | Binding of Control serum Blood-bank to linear peptides [2]
0.3: Binding of serum 2 to looped/cyclic peptides of protein X2 of SARS-CoV Urbani [1] | Binding of serum 37 to looped/cyclic peptides of protein X2 of SARS-CoV Urbani [1] | Binding of serum SARS-green to looped/cyclic peptides of protein X2 of SARS-CoV Urbani [1] | Binding of serum SARS-yellow to looped/cyclic peptides of protein X2 of SARS-CoV Urbani [1] | Binding of a rabbit serum to linear peptides [3] | Binding of a rabbit serum to looped peptides [3]
0.5: Binding of serum 1b to linear peptides of protein X2 [1] | Binding of serum 2 to linear peptides of protein X2 [1] | Binding of serum 6 to looped/cyclic peptides of protein X2 of SARS-CoV Urbani [1] | Binding of serum London to looped/cyclic peptides of protein X2 of SARS-CoV Urbani [1] | Binding of serum SARS-green to linear peptides of protein X2 [1] | Binding of Control Serum Blood-Bank to Looped peptides [2] | Binding of Control serum LUMC to linear peptides [2] | Binding of Control serum LUMC to looped peptides [2]

FLYLYALIYFLQCIN
0.1: Binding of a rabbit serum to linear peptides [3]
0.7: Binding of serum 1a to linear peptides of protein X1 of SARS-CoV Urbani [1]
0.5: Binding of serum 1b to linear peptides of protein X1 of SARS-CoV Urbani [1] | Binding of serum 2 to linear peptides of protein X1 of SARS-CoV Urbani [1] | Binding of serum 37 to linear peptides of protein X1 of SARS-CoV Urbani [1] | Binding of serum SARS-yellow to linear peptides of protein X1 of SARS-CoV Urbani [1] | Binding of Control Serum Blood-Bank to Looped peptides [2] | Binding of Control serum Blood-bank to linear peptides [2] | Binding of Control serum LUMC to linear peptides [2]
0.6: Binding of serum 62 to linear peptides of protein X1 of SARS-CoV Urbani [1]
0.3: Binding of serum 1b to looped/cyclic peptide (PEPSCAN-ELISA) [1] | Binding of serum 2 to looped/cyclic peptide (PEPSCAN-ELISA) [1] | Binding of serum SARS-yellow to looped/cyclic peptide (PEPSCAN-ELISA) [1]
0.4: Binding of serum 1a to looped/cyclic peptide (PEPSCAN-ELISA) [1] | Binding of serum 6 to linear peptides of protein X1 of SARS-CoV Urbani [1] | Binding of serum 37 to looped/cyclic peptide (PEPSCAN-ELISA) [1] | Binding of serum 62 to looped/cyclic peptide (PEPSCAN-ELISA) [1] | Binding of Control serum LUMC to looped peptides [2] | Binding of a rabbit serum to looped peptides [3]
0.2: Binding of serum 6 to looped/cyclic peptide (PEPSCAN-ELISA) [1] | Binding of serum London to linear peptides of protein X1 of SARS-CoV Urbani [1] | Binding of serum London to looped/cyclic peptide (PEPSCAN-ELISA) [1] | Binding of serum SARS-green to linear peptides of protein X1 of SARS-CoV Urbani [1] | Binding of serum SARS-green to looped/cyclic peptide (PEPSCAN-ELISA) [1]

QVTIAEILIIIMRTF
0.2: Binding of serum London to looped/cyclic peptides of protein X3 of SARS-CoV Urbani [1] | Binding of serum SARS-green to looped/cyclic peptides of protein X3 of SARS-CoV Urbani [1] | Binding of serum SARS-yellow to linear peptides of protein X3 of SARS-CoV Urbani [1]
0.3: Binding of serum 1b to looped/cyclic peptides of protein X3 of SARS-CoV Urbani [1] | Rabbit serum linear peptides [3]
0.4: Binding of serum 1b to linear peptides of protein X3 of SARS-CoV Urbani [1] | Binding of serum 37 to linear peptides of protein X3 of SARS-CoV Urbani [1] | Binding of serum 62 to looped/cyclic peptides of protein X3 of SARS-CoV Urbani [1] | Binding of serum SARS-green to linear peptides of protein X3 of SARS-CoV Urbani [1]
0.7: Binding of serum 1a to linear peptides of protein X3 of SARS-CoV Urbani [1] | Binding of serum 1a to looped/cyclic peptides of protein X3 of SARS-CoV Urbani [1] | Binding of serum 62 to linear peptides of protein X3 of SARS-CoV Urbani [1] | Binding of serum London to linear peptides of protein X3 of SARS-CoV Urbani [1] | Binding of serum SARS-yellow to looped/cyclic peptides of protein X3 of SARS-CoV Urbani [1] | Binding of Control serum Blood-bank to linear peptides of the protein X3 of SARS-CoV Urbani [2] | Binding of Control serum LUMC to linear peptides of the protein X3 of SARS-CoV Urbani [2] | Binding of Control serum LUMC to looped peptides of the protein X3 of SARS-CoV Urbani [2]
0.6: Binding of serum 37 to looped/cyclic peptides of protein X3 of SARS-CoV Urbani [1] | Rabbit serum looped peptides [3]
0.5: Binding of serum 2 to linear peptides of protein X3 of SARS-CoV Urbani [1] | Binding of serum 2 to looped/cyclic peptides of protein X3 of SARS-CoV Urbani [1] | Binding of serum 6 to linear peptides of protein X3 of SARS-CoV Urbani [1] | Binding of serum 6 to looped/cyclic peptides of protein X3 of SARS-CoV Urbani [1]
0.9: Binding of Control Serum Blood-Bank to Looped peptides of the protein X3 of SARS-CoV Urbani [2]
